# Test results from ChEMBL document CHEMBL4507275, “Data for DCP probe BI-2545” (2021).
# Activity calls are given as the source filed them. The rule behind the calls is not given here.
# Experiments:
# [1] = target: T1, 5-hydroxytryptamine receptor 3A (Homo sapiens) (UniProt P46098); experiment: 5HT3/H Cerep selectivity data (BI); settings: Compound concentration 10.0 uM
# T1 sequence (whole entry): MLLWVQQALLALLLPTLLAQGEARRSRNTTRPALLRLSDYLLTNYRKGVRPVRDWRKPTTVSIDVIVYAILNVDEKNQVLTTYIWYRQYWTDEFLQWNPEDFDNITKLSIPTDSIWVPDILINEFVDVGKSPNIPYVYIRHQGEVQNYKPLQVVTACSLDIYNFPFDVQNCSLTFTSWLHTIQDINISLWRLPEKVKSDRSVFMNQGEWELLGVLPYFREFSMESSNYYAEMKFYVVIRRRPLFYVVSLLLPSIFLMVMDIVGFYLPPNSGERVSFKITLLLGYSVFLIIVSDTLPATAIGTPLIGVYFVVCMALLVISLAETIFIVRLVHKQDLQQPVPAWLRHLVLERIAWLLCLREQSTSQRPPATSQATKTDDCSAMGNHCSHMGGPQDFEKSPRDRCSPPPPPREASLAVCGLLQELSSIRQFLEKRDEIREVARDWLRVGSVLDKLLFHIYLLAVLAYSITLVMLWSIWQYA
# [2] = target: Cannabinoid receptor 1 (Homo sapiens) (UniProt P21554); experiment: CB1/CENTR/H Cerep selectivity data (BI); settings: Compound concentration 10.0 uM
# Cannabinoid receptor 1 (Homo sapiens), sequence (P21554 whole entry): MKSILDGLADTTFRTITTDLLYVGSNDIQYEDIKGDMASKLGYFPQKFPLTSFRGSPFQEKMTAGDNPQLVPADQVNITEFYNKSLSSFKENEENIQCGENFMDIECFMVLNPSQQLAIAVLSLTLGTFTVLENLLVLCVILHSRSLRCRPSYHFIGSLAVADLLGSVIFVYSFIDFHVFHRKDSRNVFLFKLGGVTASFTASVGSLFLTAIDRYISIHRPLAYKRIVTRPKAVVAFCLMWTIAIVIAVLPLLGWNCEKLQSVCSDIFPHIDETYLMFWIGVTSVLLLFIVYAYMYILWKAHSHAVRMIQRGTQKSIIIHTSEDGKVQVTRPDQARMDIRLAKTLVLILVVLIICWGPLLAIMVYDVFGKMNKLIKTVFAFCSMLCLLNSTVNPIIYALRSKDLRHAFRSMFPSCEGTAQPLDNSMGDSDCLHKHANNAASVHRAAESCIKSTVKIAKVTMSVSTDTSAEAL
# [3] = target: Cholecystokinin receptor type A (Homo sapiens) (UniProt P32238); experiment: CCKA/H Cerep selectivity data (BI); settings: Compound concentration 10.0 uM
# [4] = target: T2, Alpha-1A adrenergic receptor (Homo sapiens) (UniProt P35348); experiment: ALPHA1AH_ANTAG Cerep selectivity data (BI); settings: filed as antagonist, Compound concentration 10.0 uM
# T2 sequence (whole entry): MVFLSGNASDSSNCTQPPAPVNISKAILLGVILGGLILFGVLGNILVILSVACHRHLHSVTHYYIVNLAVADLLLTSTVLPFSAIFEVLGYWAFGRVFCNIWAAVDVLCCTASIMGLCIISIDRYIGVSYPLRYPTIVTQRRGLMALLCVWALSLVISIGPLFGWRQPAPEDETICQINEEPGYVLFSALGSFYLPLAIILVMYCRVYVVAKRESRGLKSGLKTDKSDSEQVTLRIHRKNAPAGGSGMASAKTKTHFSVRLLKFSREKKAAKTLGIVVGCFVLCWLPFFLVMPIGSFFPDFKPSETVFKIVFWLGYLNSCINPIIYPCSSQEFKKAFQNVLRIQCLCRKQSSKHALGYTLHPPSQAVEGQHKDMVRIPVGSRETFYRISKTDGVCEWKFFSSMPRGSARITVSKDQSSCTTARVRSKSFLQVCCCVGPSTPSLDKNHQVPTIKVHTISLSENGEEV
# [5] = target: Delta-type opioid receptor (Homo sapiens) (UniProt P41143); experiment: DELTA2/H Cerep selectivity data (BI); settings: Compound concentration 10.0 uM
# [6] = target: Prostaglandin G/H synthase 1 (Homo sapiens) (UniProt P23219); experiment: COX-1 Cerep selectivity data (BI); settings: Compound concentration 10.0 uM
# [7] = target: 5-hydroxytryptamine receptor 2A (Homo sapiens, UniProt P28223); experiment: 5HT2AH_AGON Cerep selectivity data (BI); settings: filed as agonist, Compound concentration 10.0 uM
# [8] = target: cGMP-inhibited 3',5'-cyclic phosphodiesterase 3A (Homo sapiens) (UniProt Q14432); experiment: PDE3A Cerep selectivity data (BI); settings: Compound concentration 10.0 uM
# [9] = target: Prostaglandin G/H synthase 2 (Homo sapiens) (UniProt P35354); experiment: COX-2 Cerep selectivity data (BI); settings: Compound concentration 10.0 uM
# [10] = target: hERG (KCNH2) (Homo sapiens, UniProt Q12809); experiment: HERG_DOFETILIDE Cerep selectivity data (BI); parameters: mode of action inhibitor; settings: probe [3H] Dofetilide, compound concentration 10 uM, read-out: % Ctrl
# hERG (KCNH2), sequence (Q12809 whole entry): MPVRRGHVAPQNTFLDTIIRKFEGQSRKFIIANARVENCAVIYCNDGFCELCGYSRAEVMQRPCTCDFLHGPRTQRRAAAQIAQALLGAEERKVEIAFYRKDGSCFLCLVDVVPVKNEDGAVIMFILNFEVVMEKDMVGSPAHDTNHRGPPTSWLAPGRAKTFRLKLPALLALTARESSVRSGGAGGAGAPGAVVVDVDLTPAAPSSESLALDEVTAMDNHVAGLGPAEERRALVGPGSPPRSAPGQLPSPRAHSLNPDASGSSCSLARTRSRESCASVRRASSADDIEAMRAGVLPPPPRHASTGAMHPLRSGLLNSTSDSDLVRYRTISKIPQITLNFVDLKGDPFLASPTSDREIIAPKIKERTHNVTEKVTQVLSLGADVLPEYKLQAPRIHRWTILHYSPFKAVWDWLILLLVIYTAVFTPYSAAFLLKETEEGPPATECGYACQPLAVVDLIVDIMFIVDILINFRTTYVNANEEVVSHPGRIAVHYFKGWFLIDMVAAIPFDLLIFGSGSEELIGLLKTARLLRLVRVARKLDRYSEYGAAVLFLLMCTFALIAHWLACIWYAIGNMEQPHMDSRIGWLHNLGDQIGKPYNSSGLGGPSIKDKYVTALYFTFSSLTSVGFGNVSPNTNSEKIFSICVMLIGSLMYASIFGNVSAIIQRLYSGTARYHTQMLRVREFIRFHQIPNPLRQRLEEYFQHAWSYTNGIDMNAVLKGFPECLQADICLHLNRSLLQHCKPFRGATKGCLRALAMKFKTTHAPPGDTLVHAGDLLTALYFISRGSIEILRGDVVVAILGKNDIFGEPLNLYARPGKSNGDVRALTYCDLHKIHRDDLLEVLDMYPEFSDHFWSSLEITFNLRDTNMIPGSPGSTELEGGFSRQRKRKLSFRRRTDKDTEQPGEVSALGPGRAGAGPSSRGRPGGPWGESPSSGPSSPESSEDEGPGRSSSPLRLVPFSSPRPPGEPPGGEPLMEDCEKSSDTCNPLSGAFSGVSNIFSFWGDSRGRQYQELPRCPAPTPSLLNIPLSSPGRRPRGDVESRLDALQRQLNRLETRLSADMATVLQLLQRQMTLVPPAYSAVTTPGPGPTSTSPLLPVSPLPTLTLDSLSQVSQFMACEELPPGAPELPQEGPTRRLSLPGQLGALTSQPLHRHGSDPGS
# [11] = target: Muscarinic acetylcholine receptor M1 (Homo sapiens) (UniProt P11229); settings: Compound concentration 10.0 uM
# [12] = target: Sigma non-opioid intracellular receptor 1 (Homo sapiens, UniProt Q99720); experiment: GPCRScan assay: inhibition of Sigma 1; parameters: radioligand conc. used [nm] 4.0 – 5.0, parental cells HEKT
# [13] = target: Gamma-aminobutyric acid receptor subunit alpha-1 (Rattus norvegicus) (UniProt P62813); experiment: BZD/CENTR/R Cerep selectivity data (BI); settings: Compound concentration 10.0 uM
# [14] = target: Androgen receptor (Homo sapiens) (UniProt P10275); experiment: ANDROGEN/H Cerep selectivity data (BI); settings: Compound concentration 10.0 uM
# [15] = target: Kappa-type opioid receptor (Rattus norvegicus) (UniProt P34975); experiment: KAPPA/R Cerep selectivity data (BI); settings: Compound concentration 10.0 uM
# [16] = target: 3',5'-cyclic-AMP phosphodiesterase 4D (Homo sapiens) (UniProt Q08499); experiment: PDE4D2 Cerep selectivity data (BI); settings: Compound concentration 10.0 uM
# 3',5'-cyclic-AMP phosphodiesterase 4D (Homo sapiens), sequence (Q08499 whole entry): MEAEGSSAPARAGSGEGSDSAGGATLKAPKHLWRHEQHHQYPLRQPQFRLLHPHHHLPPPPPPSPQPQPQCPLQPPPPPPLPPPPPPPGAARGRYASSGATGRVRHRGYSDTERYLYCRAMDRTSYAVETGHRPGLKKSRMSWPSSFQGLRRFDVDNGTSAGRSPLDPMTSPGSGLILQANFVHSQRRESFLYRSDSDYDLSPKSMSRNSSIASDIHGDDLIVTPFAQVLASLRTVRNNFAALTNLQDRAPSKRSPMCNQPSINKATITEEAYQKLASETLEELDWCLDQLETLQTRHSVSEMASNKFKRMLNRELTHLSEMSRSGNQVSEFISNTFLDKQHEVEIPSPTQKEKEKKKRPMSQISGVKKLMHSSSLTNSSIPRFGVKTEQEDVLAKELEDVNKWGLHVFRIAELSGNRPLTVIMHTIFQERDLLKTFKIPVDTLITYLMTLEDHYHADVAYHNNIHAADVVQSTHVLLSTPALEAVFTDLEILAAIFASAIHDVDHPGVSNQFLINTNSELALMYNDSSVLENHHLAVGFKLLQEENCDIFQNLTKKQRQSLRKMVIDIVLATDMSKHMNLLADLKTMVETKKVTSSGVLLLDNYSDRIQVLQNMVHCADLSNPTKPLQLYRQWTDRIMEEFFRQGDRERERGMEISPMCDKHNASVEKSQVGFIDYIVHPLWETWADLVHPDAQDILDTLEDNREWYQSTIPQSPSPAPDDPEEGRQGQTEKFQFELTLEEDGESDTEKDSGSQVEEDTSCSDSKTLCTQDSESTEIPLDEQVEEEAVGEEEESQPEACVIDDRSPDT
# [17] = target: L-type voltage-gated calcium channel (dihydropyridine site), Cav1.2 alpha-1C (Rattus norvegicus, UniProt P22002); experiment: CA+/DHPSI/R Cerep selectivity data (BI); parameters: mode of action inhibitor; settings: rat brain, probe [3H](+)PN200-110, compound concentration 10 uM, read-out: % Ctrl
# L-type voltage-gated calcium channel (dihydropyridine site), Cav1.2 alpha-1C, sequence (P22002 whole entry): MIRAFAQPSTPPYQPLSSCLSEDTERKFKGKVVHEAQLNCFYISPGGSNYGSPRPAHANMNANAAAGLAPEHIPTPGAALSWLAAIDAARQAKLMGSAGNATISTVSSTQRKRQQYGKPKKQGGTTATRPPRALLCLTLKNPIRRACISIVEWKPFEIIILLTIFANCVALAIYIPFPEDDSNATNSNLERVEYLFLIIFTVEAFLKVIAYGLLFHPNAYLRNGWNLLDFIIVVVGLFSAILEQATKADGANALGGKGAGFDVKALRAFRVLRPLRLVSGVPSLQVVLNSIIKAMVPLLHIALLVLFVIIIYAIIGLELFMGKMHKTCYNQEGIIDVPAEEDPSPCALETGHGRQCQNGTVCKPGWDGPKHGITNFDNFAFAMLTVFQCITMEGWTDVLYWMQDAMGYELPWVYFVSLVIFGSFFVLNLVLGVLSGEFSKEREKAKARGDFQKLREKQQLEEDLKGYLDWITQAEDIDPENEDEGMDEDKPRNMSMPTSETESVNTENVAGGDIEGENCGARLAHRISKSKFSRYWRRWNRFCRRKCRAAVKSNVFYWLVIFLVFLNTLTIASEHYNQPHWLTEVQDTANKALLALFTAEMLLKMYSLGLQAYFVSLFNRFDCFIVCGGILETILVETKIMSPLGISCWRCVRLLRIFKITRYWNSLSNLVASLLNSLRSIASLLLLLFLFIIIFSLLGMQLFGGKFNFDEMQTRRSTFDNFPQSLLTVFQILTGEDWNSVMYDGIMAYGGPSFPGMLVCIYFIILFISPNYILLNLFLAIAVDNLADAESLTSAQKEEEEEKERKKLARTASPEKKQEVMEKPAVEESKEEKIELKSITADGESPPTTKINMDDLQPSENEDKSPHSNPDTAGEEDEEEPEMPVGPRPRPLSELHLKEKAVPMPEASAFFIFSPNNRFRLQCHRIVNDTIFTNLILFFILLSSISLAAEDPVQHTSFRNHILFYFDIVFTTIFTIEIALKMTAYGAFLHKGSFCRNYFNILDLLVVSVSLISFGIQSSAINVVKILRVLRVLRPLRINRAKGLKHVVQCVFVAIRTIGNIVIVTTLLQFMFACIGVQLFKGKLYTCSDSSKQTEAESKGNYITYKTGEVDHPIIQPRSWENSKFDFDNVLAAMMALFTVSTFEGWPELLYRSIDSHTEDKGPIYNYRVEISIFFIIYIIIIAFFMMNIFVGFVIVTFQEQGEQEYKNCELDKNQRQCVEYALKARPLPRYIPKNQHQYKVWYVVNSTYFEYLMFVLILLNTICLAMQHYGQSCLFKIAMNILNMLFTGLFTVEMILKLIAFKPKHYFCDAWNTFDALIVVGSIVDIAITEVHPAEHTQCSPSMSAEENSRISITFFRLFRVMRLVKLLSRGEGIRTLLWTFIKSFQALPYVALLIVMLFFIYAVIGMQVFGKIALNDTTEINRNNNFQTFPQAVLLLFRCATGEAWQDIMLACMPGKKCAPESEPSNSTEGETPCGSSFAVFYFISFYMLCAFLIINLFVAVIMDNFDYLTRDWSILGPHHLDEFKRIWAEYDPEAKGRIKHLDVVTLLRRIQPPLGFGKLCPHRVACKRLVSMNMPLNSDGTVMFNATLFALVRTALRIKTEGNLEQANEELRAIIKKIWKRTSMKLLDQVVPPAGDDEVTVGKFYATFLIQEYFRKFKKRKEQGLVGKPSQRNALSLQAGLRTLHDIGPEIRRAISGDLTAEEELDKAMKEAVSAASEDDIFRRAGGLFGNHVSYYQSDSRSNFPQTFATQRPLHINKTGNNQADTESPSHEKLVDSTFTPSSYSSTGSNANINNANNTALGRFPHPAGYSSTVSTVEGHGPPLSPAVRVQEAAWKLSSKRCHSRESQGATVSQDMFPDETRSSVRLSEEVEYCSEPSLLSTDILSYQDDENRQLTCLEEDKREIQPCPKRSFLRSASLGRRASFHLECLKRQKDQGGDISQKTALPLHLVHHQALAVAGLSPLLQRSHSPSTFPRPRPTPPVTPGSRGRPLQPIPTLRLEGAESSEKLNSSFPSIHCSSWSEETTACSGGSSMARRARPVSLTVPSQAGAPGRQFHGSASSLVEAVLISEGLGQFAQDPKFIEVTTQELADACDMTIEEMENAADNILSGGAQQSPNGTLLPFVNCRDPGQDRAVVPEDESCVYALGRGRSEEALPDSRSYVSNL
# [18] = target: Adenosine receptor A2a (Homo sapiens) (UniProt P29274); experiment: A2A/H Cerep selectivity data (BI); settings: filed as antagonist, Compound concentration 10.0 uM
# [19] = target: Sodium-dependent serotonin transporter (Homo sapiens) (UniProt P31645); experiment: SLC6A4/H Cerep selectivity data (BI); settings: filed as antagonist, Compound concentration 10.0 uM
# [20] = target: T3, Muscarinic acetylcholine receptor M2 (Homo sapiens) (UniProt P08172); experiment: M2/H Cerep selectivity data (BI); settings: filed as antagonist, Compound concentration 10.0 uM
# T3 sequence (whole entry): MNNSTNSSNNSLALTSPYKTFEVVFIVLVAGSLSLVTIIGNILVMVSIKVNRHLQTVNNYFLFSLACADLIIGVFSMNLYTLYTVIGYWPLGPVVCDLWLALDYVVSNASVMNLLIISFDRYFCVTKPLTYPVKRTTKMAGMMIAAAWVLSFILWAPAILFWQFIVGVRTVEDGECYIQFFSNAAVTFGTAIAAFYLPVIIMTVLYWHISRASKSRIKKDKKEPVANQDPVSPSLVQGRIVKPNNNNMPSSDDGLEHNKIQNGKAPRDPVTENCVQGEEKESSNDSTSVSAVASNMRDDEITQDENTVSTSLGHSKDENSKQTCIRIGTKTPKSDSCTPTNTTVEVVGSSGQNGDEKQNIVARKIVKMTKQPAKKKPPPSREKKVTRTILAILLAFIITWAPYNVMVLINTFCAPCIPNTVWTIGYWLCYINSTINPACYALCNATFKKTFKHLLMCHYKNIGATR
# [21] = target: Endothelin-1 receptor (Homo sapiens) (UniProt P25101); experiment: ETA/H Cerep selectivity data (BI); settings: Compound concentration 10.0 uM
# [22] = target: Beta-2 adrenergic receptor (Homo sapiens) (UniProt P07550); experiment: BETA2/HUM Cerep selectivity data (BI); settings: filed as antagonist, Compound concentration 10.0 uM
# Beta-2 adrenergic receptor (Homo sapiens), sequence (P07550 whole entry, looked up): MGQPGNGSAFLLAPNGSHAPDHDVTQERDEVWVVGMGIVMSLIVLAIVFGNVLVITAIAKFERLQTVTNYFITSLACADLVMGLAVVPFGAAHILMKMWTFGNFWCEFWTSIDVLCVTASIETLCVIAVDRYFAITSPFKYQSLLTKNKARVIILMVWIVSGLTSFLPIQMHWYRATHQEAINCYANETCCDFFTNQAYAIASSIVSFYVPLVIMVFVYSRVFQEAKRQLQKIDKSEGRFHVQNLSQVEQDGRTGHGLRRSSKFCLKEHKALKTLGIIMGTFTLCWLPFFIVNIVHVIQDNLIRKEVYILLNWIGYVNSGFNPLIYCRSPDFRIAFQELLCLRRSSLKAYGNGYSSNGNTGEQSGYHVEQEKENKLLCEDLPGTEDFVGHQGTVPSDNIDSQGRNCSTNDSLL
# [23] = target: 5-hydroxytryptamine receptor 1B (Rattus norvegicus) (UniProt P28564); experiment: 5HT1B/R Cerep selectivity data (BI); settings: Compound concentration 10.0 uM
smiles,measurement,setting,value
O=C(NC[C@@H]1[C@H]2CN(C(=O)OCc3cc(C(F)(F)F)cc(C(F)(F)F)c3)C[C@@H]12)c1ccc2[nH]nnc2c1 [BI 2545],residual activity,[1],94%
same,residual activity,[2],95%
same,residual activity,[3],51%
same,residual activity,[4],87%
same,residual activity,[5],82%
same,residual activity,[6],82%
same,residual activity,[7],45%
same,residual activity,[8],76%
same,residual activity,[9],81%
same,activity at 10 µM,[10],71% (not active)
same,inhibition,[11],-2.87%
same,Ki,[12],3.55 µM
same,residual activity,[13],136%
same,residual activity,[14],103%
same,residual activity,[15],68%
same,residual activity,[16],98%
same,activity at 10 µM,[17],20% (active)
same,residual activity,[18],107%
same,residual activity,[19],66%
same,residual activity,[20],100%
same,residual activity,[21],92%
same,residual activity,[22],96%
same,residual activity,[23],92%
